From ChEMBL document CHEMBL4823299, “Design, synthesis, and biological evaluation of N-(4-substituted)-3-phenylisoxazolo[5,4-d]pyrimidin-4-amine derivatives as apoptosis-inducing cytotoxic agents” (Bioorg Med Chem Lett, 2021)
The source made the active and inactive calls. No cut-off for these calls is given here.

Legend:
[1] = tested on: Panel NCI-60 (60 carcinoma cell lines); test: Cytotoxicity against human NCI60 cells by SRB assay; type: functional, cell-based
[2] = tested on: BT-474; test: Induction of mitochondrial membrane potential loss in human BT-474 cells assessed as depolarised cells at 0.25 uM incubated for 24 hrs by […] staining based assay (reference value: 4.18%); type: functional
[3] = tested on: RPMI-8226; test: Growth inhibition of human RPMI-8226 cells; type: functional
[4] = tested on: BT-474; test: Induction of mitochondrial membrane potential loss in human BT-474 cells assessed as polarised cells at 1 uM incubated for 24 hrs by […] staining based assay (reference value: 93.95%); type: functional
[5] = tested on: BT-474; test: Induction of mitochondrial membrane potential loss in human BT-474 cells assessed as depolarised cells at 1 uM incubated for 24 hrs by […] staining based assay (reference value: 4.18%); type: functional
[6] = tested on: SR; test: Growth inhibition of human SR cells; type: functional
[7] = tested on: BT-474; test: Induction of apoptosis in human BT-474 cells assessed as cell shrinkage at 0.25 to 1 uM by phase-contrast microscopy; type: functional, cell-based; settings: dose 0.25-1 µM
[8] = tested on: BT-474; test: Induction of apoptosis in human BT-474 cells assessed as early apoptotic cells at 1 uM incubated for 24 hrs by annexin-V/FITC-PI staining assay (reference value: 9.44%); type: functional
[9] = tested on: BT-474; test: Induction of apoptosis in human BT-474 cells assessed as late apoptotic cells at 0.5 uM incubated for 24 hrs by annexin-V/FITC-PI staining assay (reference value: 1.83%); type: functional
[10] = tested on: HT-29; test: Growth of human HT-29 cells relative to control
[11] = tested on: BT-474; test: Induction of apoptosis in human BT-474 cells assessed as early apoptotic cells at 0.5 uM incubated for 24 hrs by annexin-V/FITC-PI staining assay (reference value: 9.44%); type: functional
[12] = tested on: BT-474; test: Induction of apoptosis in human BT-474 cells assessed as viable cells at 1 uM incubated for 24 hrs by annexin-V/FITC-PI staining assay (reference value: 88.49%); type: functional; settings: read-out: Activity
[13] = tested on: BT-474; test: Induction of mitochondrial membrane potential loss in human BT-474 cells assessed as polarised cells at 0.5 uM incubated for 24 hrs by […] staining based assay (reference value: 93.95%); type: functional
[14] = tested on: BT-474; test: Induction of apoptosis in human BT-474 cells assessed as horseshoe-shaped nuclei by measuring bright clue colour at 0.25 to 1 uM incubated for 24 hrs by DAPI staining based fluorescence microscope assay; type: functional, cell-based; settings: dose 0.25-1 µM
[15] = tested on: BT-474; test: Induction of apoptosis in human BT-474 cells assessed as fragmented nucleus by measuring bright clue colour at 0.25 to 1 uM incubated for 24 hrs by DAPI staining based fluorescence microscope assay; type: functional, cell-based; settings: dose 0.25-1 µM
[16] = tested on: BT-474; test: Induction of ROS production in human BT-474 cells assessed as increase in intracellular ROS level incubated for 24 hrs by DCF-DA staining based assay; type: functional, cell-based; settings: dose 0.25-1 µM
[17] = tested on: HT-29; test: Growth inhibition of human HT-29 cells; type: functional
[18] = tested on: BT-474; test: Induction of apoptosis in human BT-474 cells assessed as pyknotic and chromatin condensation by measuring bright clue colour at 0.25 to 1 uM incubated for 24 hrs by DAPI staining based fluorescence microscope assay; type: functional, cell-based; settings: dose 0.25-1 µM
[19] = tested on: KM12; test: Growth inhibition of human KM12 cells; type: functional
[20] = tested on: BT-474; test: Induction of apoptosis in human BT-474 cells assessed as cellular morphological changes at 0.25 to 1 uM incubated for 24 hrs by AO/EB staining assay; type: functional, cell-based; settings: dose 0.25-1 µM
[21] = tested on: BT-474; test: Induction of apoptosis in human BT-474 cells assessed as […] at 0.25 to 1 uM by phase-contrast microscopy; type: functional, cell-based; settings: dose 0.25-1 µM
[22] = tested on: SNB-75; test: Growth inhibition of human SNB75 cells; type: functional
[23] = tested on: NCI-H460; test: Growth of human NCI-H460 cells relative to control
[24] = tested on: MCF7; test: Growth inhibition of human MCF7 cells; type: functional
[25] = tested on: SR; test: Growth of human SR cells relative to control
[26] = tested on: NCI-H460; test: Growth inhibition of human NCI-H460 cells; type: functional
[27] = tested on: MCF7; test: Growth of human MCF7 cells relative to control
[28] = tested on: BT-474; test: Induction of mitochondrial membrane potential loss in human BT-474 cells assessed as polarised cells at 0.25 uM incubated for 24 hrs by […] staining based assay (reference value: 93.95%); type: functional
[29] = tested on: BT-474; test: Inhibition of colony formation in human BT-474 cells by clonogenic assay; type: functional, cell-based
[30] = tested on: BT-474; test: Induction of mitochondrial membrane potential loss in human BT-474 cells assessed as depolarised cells at 0.5 uM incubated for 24 hrs by […] staining based assay (reference value: 4.18%); type: functional
[31] = tested on: BT-474; test: Induction of apoptosis in human BT-474 cells assessed as nuclear shrinkage by measuring bright clue colour at 0.25 to 1 uM incubated for 24 hrs by DAPI staining based fluorescence microscope assay; type: functional, cell-based; settings: dose 0.25-1 µM
[32] = tested on: LOX IMVI; test: Growth inhibition of human LOX IMVI cells; type: functional
[33] = tested on: BT-474; test: Induction of apoptosis in human BT-474 cells assessed as necrotic cells at 0.5 uM incubated for 24 hrs by annexin-V/FITC-PI staining assay (reference value: 0.24%); type: functional
[34] = tested on: RPMI-8226; test: Growth of human RPMI-8226 cells relative to control
[35] = tested on: BT-474; test: Induction of apoptosis in human BT-474 cells assessed as necrotic cells at 1 uM incubated for 24 hrs by annexin-V/FITC-PI staining assay (reference value: 0.24%); type: functional
[36] = tested on: BT-474; test: Induction of apoptosis in human BT-474 cells assessed as viable cells at 0.5 uM incubated for 24 hrs by annexin-V/FITC-PI staining assay (reference value: 88.49%); type: functional; settings: read-out: Activity
[37] = tested on: MDA-MB-435; test: Growth inhibition of human MDA-MB-435 cells; type: functional
[38] = tested on: K562; test: Growth of human K562 cells relative to control
[39] = tested on: KM12; test: Growth of human KM12 cells relative to control
[40] = tested on: BT-474; test: Induction of apoptosis in human BT-474 cells assessed as reduced number of viable cells at 0.25 to 1 uM by phase-contrast microscopy; type: functional, cell-based; settings: dose 0.25-1 µM
[41] = tested on: SNB-75; test: Growth of human SNB75 cells relative to control
[42] = tested on: HCT-116; test: Growth of human HCT-116 cells relative to control
[43] = tested on: MDA-MB-435; test: Growth of human MDA-MB-435 cells relative to control
[44] = tested on: HCT-116; test: Growth inhibition of human HCT-116 cells; type: functional
[45] = tested on: BT-474; test: Induction of apoptosis in human BT-474 cells assessed as late apoptotic cells at 1 uM incubated for 24 hrs by annexin-V/FITC-PI staining assay (reference value: 1.83%); type: functional
[46] = tested on: K562; test: Growth inhibition of human K562 cells; type: functional
[47] = tested on: LOX IMVI; test: Growth of human LOX IMVI cells relative to control
[48] = tested on: BT-474; test: Cytotoxicity against human BT-474 cells assessed as cell growth inhibition by MTT assay; type: functional, cell-based
[49] = read-out: LC50 (the source's name)

## Cc1cc(C)cc(Oc2ccc(Nc3ncnc4onc(-c5ccccc5)c34)cc2)c1
[1]
  Activity: Active

## c1ccc(COc2ccc(Nc3ncnc4onc(-c5ccccc5)c34)cc2)cc1
[1]
  Activity: Active

## Clc1ccccc1Oc1ccc(Nc2ncnc3onc(-c4ccccc4)c23)cc1
[1]
  Activity: Active

## Clc1cccc(Nc2ncnc3onc(-c4ccccc4)c23)c1
[1]
  Activity: Active

## Brc1ccc(COc2ccc(Nc3ncnc4onc(-c5ccccc5)c34)cc2)cc1
[1]
  Activity: Active

## c1ccc(-c2noc3ncnc(Nc4ccc(N5CCOCC5)cc4)c23)cc1
[1]
  Activity: Active

## Clc1ccc(COc2ccc(Nc3ncnc4onc(-c5ccccc5)c34)cc2)cc1
[1]
  Activity: Active

## O=C(O)CNc1ncnc2onc(-c3ccccc3)c12
[1]
  Activity: Active

## Fc1ccc(Oc2ccc(Nc3ncnc4onc(-c5ccccc5)c34)cc2)cc1
[1]
  Activity: Active

## Cc1ccc(COc2ccc(Nc3ncnc4onc(-c5ccccc5)c34)cc2)cc1
[1]
  Activity: Active

## Clc1ccc(COc2ccc(Nc3ncnc4onc(-c5ccccc5)c34)cc2)c(Cl)c1
[1]
  Activity: Active

## c1ccc(Nc2ncnc3onc(-c4ccccc4)c23)cc1
[1]
  Activity: Active

## Clc1cccc(COc2ccc(Nc3ncnc4onc(-c5ccccc5)c34)cc2)c1
[1]
  Activity: Active

## c1ccc(-c2noc3ncnc(Nc4ccc(Oc5ccccc5-c5ccnc6ccccc56)cc4)c23)cc1
[1]
  Activity: Active

## COc1cccc(COc2ccc(Nc3ncnc4onc(-c5ccccc5)c34)cc2)c1
[1]
  Activity: Active

## c1ccc(-c2noc3ncnc(Nc4ccc(Oc5cccc6ccccc56)cc4)c23)cc1
[1]
  Activity: Active

## c1ccc(-c2noc3ncnc(Nc4ccc(Oc5ccc6ccccc6c5)cc4)c23)cc1
[1]
  Activity: Active

## Clc1ccc(Oc2ccc(Nc3ncnc4onc(-c5ccccc5)c34)cc2)c(Cl)c1
[1]
  Activity: Active

## Fc1ccc(COc2ccc(Nc3ncnc4onc(-c5ccccc5)c34)cc2)cc1
[1]
  Activity: Active

## Brc1ccc(Oc2ccc(Nc3ncnc4onc(-c5ccccc5)c34)cc2)cc1
[1]
  Activity: Active

## c1ccc(Oc2ccc(Nc3ncnc4onc(-c5ccccc5)c34)cc2)cc1
[1]
  Activity: Active

## Fc1ccccc1Nc1ncnc2onc(-c3ccccc3)c12
[1]
  Activity: Active

## O=c1cc(Cc2ccc(Oc3ccc(Nc4ncnc5onc(-c6ccccc6)c45)cc3)cc2)c2ccccc2o1
[1]
  Activity: Active

## COc1ccc(Nc2ncnc3onc(-c4ccccc4)c23)cc1
[1]
  Activity: Active

## FC(F)(F)Oc1ccc(Oc2ccc(Nc3ncnc4onc(-c5ccccc5)c34)cc2)cc1
[1]
  Activity: Active

## CCOC(=O)c1ccc(Oc2ccc(Nc3ncnc4onc(-c5ccccc5)c34)cc2)cc1
[1]
  Activity: Active

## COc1ccc(COc2ccc(Nc3ncnc4onc(-c5ccccc5)c34)cc2)cc1
[1]
  Activity: Active

## Fc1cccc(COc2ccc(Nc3ncnc4onc(-c5ccccc5)c34)cc2)c1
[2]
  Activity: 5.5%
[3]
  GI50: 58 nM
  TGI: > 100000 nM
[3]; [49]
  CC50: > 100000 nM
[4]
  Activity: 75.08%
[5]
  Activity: 18.83%
[6]
  GI50: 67 nM
  TGI: > 100000 nM
[6]; [49]
  CC50: > 100000 nM
[7]
  Activity: Active
[8]
  Activity: 27.93%
[9]
  Activity: 6.9%
[10]
  growth, % of control: 3.86%
[11]
  Activity: 27.1%
[12]
  viability at 1 µM: 63.3%
[1]
  Activity: Active
[13]
  Activity: 78.84%
[14]
  Activity: Active
[15]
  Activity: Active
[16]
  Activity: Dose-Dependent Effect
[17]
  GI50: 53 nM
  TGI: 11600 nM
[17]; [49]
  CC50: > 100000 nM
[18]
  Activity: Active
[19]
  GI50: 80 nM
  TGI: 14800 nM
[19]; [49]
  CC50: > 100000 nM
[20]
  Activity: Active
[21]
  Activity: Active
[22]
  GI50: 26 nM
  TGI: 386 nM
[22]; [49]
  CC50: > 100000 nM
[23]
  growth, % of control: 2.61%
[24]
  GI50: 37 nM
  TGI: > 100000 nM
[24]; [49]
  CC50: > 100000 nM
[25]
  growth, % of control: 26.06%
[26]
  GI50: 50 nM
  TGI: 28400 nM
[26]; [49]
  CC50: > 100000 nM
[27]
  growth, % of control: 14.05%
[28]
  Activity: 92.79%
[29]
  Activity: Dose-Dependent Effect
[30]
  Activity: 16.12%
[31]
  Activity: Active
[32]
  GI50: 949 nM
  TGI: > 100000 nM
[32]; [49]
  CC50: > 100000 nM
[33]
  Activity: 1.06%
[34]
  growth, % of control: 12.49%
[35]
  Activity: 1.55%
[36]
  viability at 0.5 µM: 64.9%
[37]
  GI50: 32 nM
[38]
  growth, % of control: 12.08%
[39]
  growth, % of control: 9.57%
[40]
  Activity: Active
[41]
  growth, % of control: -34.93%
[42]
  growth, % of control: 8.15%
[43]
  growth, % of control: -54.67%
[44]
  GI50: 58 nM
  TGI: > 100000 nM
[44]; [49]
  CC50: > 100000 nM
[45]
  Activity: 7.19%
[46]
  GI50: 95 nM
  TGI: > 100000 nM
[46]; [49]
  CC50: > 100000 nM
[47]
  growth, % of control: 23.07%
[48]
  IC50: 640 nM
